Measurements published in patent US20170190671A1, “BIS(ARYL)CATECHOL DERIVATIVES AS HERBICIDES” (E I DU PONT DE NEMOURS AND COMPANY, priority 2014, published 2017).

Experiments:
Assay in all cases: Test C postemergence
Format in all cases: in vivo
[1] = tested on: johnsongrass (Sorghum halepense); conditions: scale 0 to 100
Method in brief: (§1)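 Seeds in loam-sand soil were treated preemergence, and plants at the 1- to 4-leaf stage (2-18 cm) in peat-based medium were sprayed postemergence, with test chemicals in a non-phytotoxic solvent containing surfactant. After 13-15 days in a greenhouse, response was rated visually against controls from 0 (no effect) to 100 (complete control).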

[2] = tested on: lambsquarters (Chenopodium album); conditions: scale 0 to 100
Method in brief: as §1

[3] = tested on: yellow nutsedge (Cyperus esculentus); conditions: scale 0 to 100
Method in brief: as §1

soybean (Glycine max) = conditions: scale 0 to 100
Method in brief: as §1

[4] = tested on: blackgrass (Alopecurus myosuroides); conditions: scale 0 to 100
Method in brief: as §1

[5] = tested on: oilseed rape (Brassica napus); conditions: scale 0 to 100
Method in brief: as §1

wild oat (Avena fatua) = conditions: scale 0 to 100
Method in brief: as §1

corn (Zea mays) = conditions: scale 0 to 100
Method in brief: as §1

[6] = tested on: ragweed (common ragweed, Ambrosia elatior); conditions: scale 0 to 100
Method in brief: as §1

[7] = tested on: Italian ryegrass (Lolium multiflorum); conditions: scale 0 to 100
Method in brief: as §1

[8] = tested on: giant foxtail (Setaria faberii); conditions: scale 0 to 100
Method in brief: as §1

[9] = tested on: chickweed (common chickweed, Stellaria media); conditions: scale 0 to 100
Method in brief: as §1

[10] = tested on: pigweed (Amaranthus retroflexus); conditions: scale 0 to 100
Method in brief: as §1

[11] = tested on: waterhemp (common waterhemp, Amaranthus rudis); conditions: scale 0 to 100
Method in brief: as §1

[12] = tested on: barnyardgrass (Echinochloa crus-galli)
Method in brief: as §1

Fc1ccc(F)c(Oc2ncc(C(F)(F)F)cn2)c1Oc1ncc(Cl)cn1 [Compound 25]
95: Plant response rating, Pigweed ([10]; Postemergence, 62 g ai/ha)
20: Plant response rating, Chickweed ([9]; Postemergence, 16 g ai/ha)
10: Plant response rating, Nutsedge, Yellow ([3]; Postemergence, 62 g ai/ha) | Plant response rating, Oat, Wild (wild oat (Avena fatua); Postemergence, 31 g ai/ha) | Plant response rating, Ragweed ([6]; Postemergence, 31 g ai/ha) | Plant response rating, Barnyardgrass ([12]; Postemergence, 62 g ai/ha, scale 0 to 100)
85: Plant response rating, Pigweed ([10]; Postemergence, 31 g ai/ha)
50: Plant response rating, Soybean (soybean (Glycine max); Postemergence, 31 g ai/ha) | Plant response rating, Oilseed Rape ([5]; Postemergence, 31 g ai/ha) | Plant response rating, Chickweed ([9]; Postemergence, 31 g ai/ha) | Plant response rating, Waterhemp ([11]; Postemergence, 31 g ai/ha)
15: Plant response rating, Oat, Wild (wild oat (Avena fatua); Postemergence, 62 g ai/ha)
5: Plant response rating, Johnsongrass ([1]; Postemergence, 16 g ai/ha) | Plant response rating, Johnsongrass ([1]; Postemergence, 31 g ai/ha) | Plant response rating, Johnsongrass ([1]; Postemergence, 62 g ai/ha) | Plant response rating, Nutsedge, Yellow ([3]; Postemergence, 31 g ai/ha) | Plant response rating, Blackgrass ([4]; Postemergence, 31 g ai/ha) | Plant response rating, Blackgrass ([4]; Postemergence, 62 g ai/ha) | Plant response rating, Oat, Wild (wild oat (Avena fatua); 8 g ai/ha, postemergence) | Plant response rating, Corn (corn (Zea mays); 8 g ai/ha, postemergence) | Plant response rating, Corn (corn (Zea mays); Postemergence, 16 g ai/ha) | Plant response rating, Corn (corn (Zea mays); Postemergence, 31 g ai/ha) | Plant response rating, Corn (corn (Zea mays); Postemergence, 62 g ai/ha) | Plant response rating, Ryegrass, Italian ([7]; Postemergence, 31 g ai/ha) | Plant response rating, Ryegrass, Italian ([7]; Postemergence, 62 g ai/ha) | Plant response rating, Foxtail, Giant ([8]; Postemergence, 62 g ai/ha) | Plant response rating, Barnyardgrass ([12]; 8 g ai/ha, postemergence, scale 0 to 100 (0 no effect, 100 complete control)) | Plant response rating, Barnyardgrass ([12]; Postemergence, 16 g ai/ha, scale 0 to 100) | Plant response rating, Barnyardgrass ([12]; Postemergence, 31 g ai/ha, scale 0 to 100)
0: Plant response rating, Johnsongrass ([1]; 8 g ai/ha, postemergence) | Plant response rating, Nutsedge, Yellow ([3]; 8 g ai/ha, postemergence) | Plant response rating, Blackgrass ([4]; 8 g ai/ha, postemergence) | Plant response rating, Blackgrass ([4]; Postemergence, 16 g ai/ha) | Plant response rating, Ragweed ([6]; 8 g ai/ha, postemergence) | Plant response rating, Ryegrass, Italian ([7]; 8 g ai/ha, postemergence) | Plant response rating, Foxtail, Giant ([8]; 8 g ai/ha, postemergence) | Plant response rating, Foxtail, Giant ([8]; Postemergence, 16 g ai/ha) | Plant response rating, Foxtail, Giant ([8]; Postemergence, 31 g ai/ha) | Plant response rating, Chickweed ([9]; 8 g ai/ha, postemergence)
25: Plant response rating, Ragweed ([6]; Postemergence, 62 g ai/ha)
30: Plant response rating, Soybean (soybean (Glycine max); 8 g ai/ha, postemergence) | Plant response rating, Oilseed Rape ([5]; 8 g ai/ha, postemergence)
80: Plant response rating, Lambsquarters ([2]; Postemergence, 16 g ai/ha) | Plant response rating, Lambsquarters ([2]; Postemergence, 31 g ai/ha)
45: Plant response rating, Soybean (soybean (Glycine max); Postemergence, 62 g ai/ha) | Plant response rating, Oilseed Rape ([5]; Postemergence, 62 g ai/ha)
60: Plant response rating, Lambsquarters ([2]; 8 g ai/ha, postemergence) | Plant response rating, Chickweed ([9]; Postemergence, 62 g ai/ha)
90: Plant response rating, Waterhemp ([11]; 8 g ai/ha, postemergence)
75: Plant response rating, Lambsquarters ([2]; Postemergence, 62 g ai/ha) | Plant response rating, Pigweed ([10]; 8 g ai/ha, postemergence) | Plant response rating, Waterhemp ([11]; Postemergence, 62 g ai/ha)
